In patent US6617350B2, “Inhibitors of aspartyl protease” (priority 1999, dated 2003) one finds Ki and IC50 data, which are given here for 21 molecules.

The target of one test is HIV-1 protease (Human immunodeficiency virus type 1 group M subtype B, UniProt P04585). The test can be described thus: biochemical. The settings on record: Table 12; HIV-1 protease; read-out: Ki.
In another test the test system is HIV-1 (strain IIIB). Nature of the test: microbe, parasite or virus in culture. It is filed as cell-based. The settings on record: Human immunodeficiency virus 1, IIIB, MT4, Table 12; anti-viral potency in MT-4 cells; read-out: IC50.

pIC50, pKi: −log10 of the molar value.

As usually defined, the pKi is the Ki on a negative log10 scale, so that one unit is a factor of ten. As usually defined, the pIC50 is the IC50 on a negative log10 scale, so that one unit is a factor of ten. As for `COC(=O)NCCCCC(C)(C)CN(C[C@@H](O)[C@H](Cc1ccccc1)NC(=O)O[C@H]1CO[C@H]2OCC[C@H]21)S(=O)(=O)c1ccc2c(c1)OCCO2` [Compound 250, (3R,3aS,6aR)hexahydrofuro[2,3-b]furan-3-yl N-[(1S,2R)-1-benzyl-3-((2,3-dihydro-1,4-benzodioxin-6-ylsulfonyl)6-[(methoxycarbonyl)amino]-2,2-dimethylhexylamino)-2-hydroxypropyl]carbamate], the pKi on HIV-1 protease is above 9.00. Moreover, the pIC50 in the test with HIV-1 (strain IIIB) was at least 7.00.
As for `CN(C)C(=O)NCCCCC(C)(C)CN(CC(O)C(Cc1ccccc1)NC(=O)OC1COC2OCCC12)S(=O)(=O)c1ccc2c(c1)OCCO2` [Compound 251, (3R,3aS,6aR)hexahydrofuro[2,3-b]furan-3-yl N-(1S,2R)-1-benzyl-3-[(2,3-dihydro-1,4-benzodioxin-6-ylsulfonyl)(6-[(dimethylamino)carbonyl]amino-2,2-dimethylhexyl)amino]-2-hydroxypropylcarbamate], the pKi at HIV-1 protease is above 9.00. Further, the negative logarithm of the IC50 (pIC50) in the test with HIV-1 (strain IIIB) was at least 7.00.
Consider `CC(=O)CCC(C)(C)CN(CC(O)[C@H](Cc1ccccc1)NC(=O)OC1COC2OCCC12)S(=O)(=O)c1ccc2c(c1)OCCO2` (stereo partly drawn) [Compound 252, (3R,3aS,6aR)-Hexahydrofuro[2,3-b]furan-3-yl N-((1S,2R)-3-(1,4-benzodioxan-6-sulfonyl)(2,2-dimethyl-5-oxohexyl)amino-1-benzyl-2-hydroxypropyl)carbamate], for which the pKi on HIV-1 protease was above 9.00. Also, in the test on HIV-1 (strain IIIB), the pIC50 was at least 7.00.
The like results for `CC(=O)CCC(C)(C)CN(CC(O)[C@H](Cc1ccccc1)NC(=O)OC1COC2OCCC12)S(=O)(=O)c1cccc(N)c1` (stereo partly drawn) [Compound 253] were, in that order, above 9.00 and at least 7.00.
Regarding `CC(=O)CCC(C)(C)CN(CC(O)[C@H](Cc1ccccc1)NC(=O)OC1COC2OCCC12)S(=O)(=O)c1cccc(N(C)C)c1` (stereo partly drawn) [Compound 254], the negative logarithm of the Ki (pKi) on HIV-1 protease is above 9.00. The pIC50 in the test on HIV-1 (strain IIIB) is at least 7.00.
For `CC(C)(CCCCNS(C)(=O)=O)CN(C[C@@H](O)[C@H](Cc1ccccc1)NC(=O)O[C@H]1CO[C@H]2OCC[C@H]21)S(=O)(=O)c1ccc2c(c1)OCO2` [Compound 255, (3R,3aS,6aR)hexahydrofuro[2,3-b]furan-3-yl N-[(1S,2R)-3-((1,3-benzodioxol-5-ylsulfonyl)2,2-dimethyl-6-[(methylsulfonyl)amino]hexylamino)-1-benzyl-2-hydroxypropyl]carbamate], the pKi at HIV-1 protease was above 9.00. In addition, the pIC50 with HIV-1 (strain IIIB) is at least 7.00.
The like results for `CC(C)(CCCCNS(C)(=O)=O)CN(C[C@@H](O)[C@H](Cc1ccccc1)NC(=O)O[C@H]1CO[C@H]2OCC[C@H]21)S(=O)(=O)c1ccc2c(c1)OCCO2` [Compound 256, (3R,3aS,6aR)hexahydrofuro[2,3-b]furan-3-yl N-[(1S,2R)-1-benzyl-3-((2,3-dihydro-1,4-benzodioxin-6-ylsulfonyl)2,2-dimethyl-6-[(methylsulfonyl)amino]hexylamino)-2-hydroxypropyl]carbamate] were, in that order, above 9.00 and at least 7.00.
The like results for `CC(C)(CCCN)CN(CC(O)C(Cc1ccccc1)NC(=O)OC1COC2OCCC12)S(=O)(=O)c1ccc2c(c1)OCO2` [Compound 257, 3R,3aS,6aR)hexahydrofuro[2,3-b]furan-3-yl N-(1S,2R)-3-[(5-amino-2,2-dimethylpentyl)(1,3-benzodioxol-5-ylsulfonyl)amino]-1-benzyl-2-hydroxypropylcarbamate] were, in that order, above 9.00 and 6.30 to 7.00.
For `CNc1cccc(S(=O)(=O)N(C[C@@H](O)[C@H](Cc2ccccc2)NC(=O)O[C@H]2CO[C@H]3OCC[C@H]32)CC(C)(C)CCCN)c1` [Compound 258, (3R,3aS,6aR)hexahydrofuro[2,3-b]furan-3-yl N-[(1S,2R)-3-((5-amino-2,2-dimethylpentyl)[3-(methylamino)phenyl]sulfonylamino)-1-benzyl-2-hydroxypropyl]carbamate], the pKi at HIV-1 protease was above 9.00. Further, the pIC50 in the test on HIV-1 (strain IIIB) was 6.30 to 7.00.
Taken in the same sequence, the figures for `COc1ccc(S(=O)(=O)N(CC(O)[C@H](Cc2ccccc2)NC(=O)OC2COC3OCCC23)CC(C)(C)CCCC(C)=O)cc1` (stereo partly drawn) [Compound 259] were above 9.00 and at least 7.00.
As to `C/C(CCC(C)(C)CN(CC(O)[C@H](Cc1ccccc1)NC(=O)OC1COC2OCCC12)S(=O)(=O)c1ccc2c(c1)OCO2)=N\O` (stereo partly drawn) [Compound 260, (3R,3aS,6aR)-Hexahydrofuro[2,3-b]furan-3-yl N-((1S,2R)-1-benzyl-3-(2,2-dimethyl-5-hydroxyiminohexyl)[(3,4-methylenedioxyphenyl)sulfonyl]amino-2-hydroxypropyl)carbamate], at HIV-1 protease, the pKi is above 9.00. Further, the pIC50 in the test with HIV-1 (strain IIIB) is at least 7.00.
Taken in the same sequence, the figures for `CO/N=C(\C)CCC(C)(C)CN(CC(O)[C@H](Cc1ccccc1)NC(=O)OC1COC2OCCC12)S(=O)(=O)c1ccc2c(c1)OCO2` (stereo partly drawn) [Compound 261, (3R,3aS,6aR)-Hexahydrofuro[2,3-b]furan-3-yl-N-((1S,2R)-1-benzyl-3-(2,2-dimethyl-5-methoxyiminohexyl)[(3,4-methylenedioxyphenyl)sulfonyl]amino-2-hydroxypropyl)carbamate] were above 9.00 and at least 7.00.
For the molecule `CC(C)(CCCN)CN(CC(O)C(Cc1ccccc1)NC(=O)OC1COC2OCCC12)S(=O)(=O)c1ccc2c(c1)OCCO2` [Compound 262, (3R,3aS,6aR)hexahydrofuro[2,3-b]furan-3-yl N-(1S,2R)-3-[(5-amino-2,2-dimethylpentyl)(2,3-dihydro-1,4-benzodioxin-6-ylsulfonyl)amino]-1-benzyl-2-hydroxypropylcarbamate], at HIV-1 protease, the pKi is above 9.00. The negative-log IC50 (pIC50) in the test with HIV-1 (strain IIIB) was 6.30 to 7.00.
With `COC(=O)NCCCC(C)(C)CN(C[C@@H](O)[C@H](Cc1ccccc1)NC(=O)O[C@H]1CO[C@H]2OCC[C@H]21)S(=O)(=O)c1ccc2c(c1)OCO2` [Compound 263, (3R,3aS,6aR)hexahydrofuro[2,3-b]furan-3-yl N-[(1S,2R)-3-((1,3-benzodioxol-5-ylsulfonyl)5-[(methoxycarbonyl)amino]-2,2-dimethylpentylamino)-1-benzyl-2-hydroxypropyl]carbamate], the pKi at HIV-1 protease is above 9.00. Moreover, in the test with HIV-1 (strain IIIB), the pIC50 is at least 7.00.
As to `CNc1cccc(S(=O)(=O)N(C[C@@H](O)[C@H](Cc2ccccc2)NC(=O)O[C@H]2CO[C@H]3OCC[C@H]32)CC(C)(C)CCCNC(=O)OC)c1` [Compound 264, (3R,3aS,6aR)hexahydrofuro[2,3-b]furan-3-yl N-[(1S,2R)-1-benzyl-2-hydroxy-3-(5-[(methoxycarbonyl)amino]-2,2-dimethylpentyl[3-(methylamino)phenyl]sulfonylamino)propyl]carbamate], on HIV-1 protease, the pKi was above 9.00. Moreover, the negative-log IC50 (pIC50) with HIV-1 (strain IIIB) was at least 7.00.
The like results for `COC(=O)NCCCC(C)(C)CN(C[C@@H](O)[C@H](Cc1ccccc1)NC(=O)O[C@H]1CO[C@H]2OCC[C@H]21)S(=O)(=O)c1ccc2c(c1)OCCO2` [Compound 265, (3R,3aS,6aR)hexahydrofuro[2,3-b]furan-3-yl N-[(1S,2R)-1-benzyl-3-((2,3-dihydro-1,4-benzodioxin-6-ylsulfonyl)5-[(methoxycarbonyl)amino]-2,2-dimethylpentylamino)-2-hydroxypropyl]carbamate] were, in that order, above 9.00 and at least 7.00.
As for `CN(C)C(=O)NCCCC(C)(C)CN(CC(O)C(Cc1ccccc1)NC(=O)OC1COC2OCCC12)S(=O)(=O)c1ccc2c(c1)OCO2` [Compound 266, (3R,3aS,6aR)hexahydrofuro[2,3-b]furan-3-yl N-(1S,2R)-3-[(1,3-benzodioxol-5-ylsulfonyl)(5-[(dimethylamino)carbonyl]amino-2,2-dimethylpentyl)amino]-1-benzyl-2-hydroxypropylcarbamate], the pKi at HIV-1 protease is above 9.00. Further, the negative logarithm of the IC50 (pIC50) in the test on HIV-1 (strain IIIB) is at least 7.00.
Taken in the same sequence, the figures for `CNc1cccc(S(=O)(=O)N(C[C@@H](O)[C@H](Cc2ccccc2)NC(=O)O[C@H]2CO[C@H]3OCC[C@H]32)CC(C)(C)CCCNC(=O)N(C)C)c1` [Compound 267, (3R,3aS,6aR)hexahydrofuro[2,3-b]furan-3-yl N-[(1S,2R)-1-benzyl-3-((5-[(dimethylamino)carbonyl]amino-2,2-dimethylpentyl)[3-(methylamino)phenyl]sulfonylamino)-2-hydroxypropyl]carbamate] were above 9.00 and at least 7.00.
As for `CN(C)C(=O)NCCCC(C)(C)CN(CC(O)C(Cc1ccccc1)NC(=O)OC1COC2OCCC12)S(=O)(=O)c1ccc2c(c1)OCCO2` [Compound 268, (3R,3aS,6aR)hexahydrofuro[2,3-b]furan-3-yl N-(1S,2R)-1-benzyl-3-[(2,3-dihydro-1,4-benzodioxin-6-ylsulfonyl)(5-[(dimethylamino)carbonyl]amino-2,2-dimethylpentyl)amino]-2-hydroxypropylcarbamate], on HIV-1 protease, the pKi is above 9.00. The pIC50 with HIV-1 (strain IIIB) was at least 7.00.
The like results for `CC(C)(CCCNS(C)(=O)=O)CN(C[C@@H](O)[C@H](Cc1ccccc1)NC(=O)O[C@H]1CO[C@H]2OCC[C@H]21)S(=O)(=O)c1ccc2c(c1)OCO2` [Compound 269, (3R,3aS,6aR)hexahydrofuro[2,3-b]furan-3-yl N-[(1S,2R)-3-((1,3-benzodioxol-5-ylsulfonyl)2,2-dimethyl-5-[(methylsulfonyl)amino]pentylamino)-1-benzyl-2-hydroxypropyl]carbamate] were, in that order, above 9.00 and at least 7.00.
Taken in the same sequence, the figures for `CNc1cccc(S(=O)(=O)N(CC(O)C(Cc2ccccc2)NC(=O)OC2COC3OCCC23)CC(C)(C)CCCNS(C)(=O)=O)c1` [Compound 270, (3R,3aS,6aR)hexahydrofuro[2,3-b]furan-3-yl N-[(1S,2R)-1-benzyl-3-((5-[(methylsulfonyl]amino-2,2-dimethylpentyl)[3-(methylamino)phenyl]sulfonylamino)-2-hydroxypropyl]carbamate] were above 9.00 and at least 7.00.
